Experimental data from ChEMBL document CHEMBL5131471, “Design, synthesis and mechanism studies of novel dual PARP1/BRD4 inhibitors against pancreatic cancer” (Eur J Med Chem, 2022).

Columns and labels:
MDA-MB-231 = test: Antiproliferative activity against BRCA-proficient human MDA-MB-231 cells assessed as inhibition of cell growth measured after 7 days by MTT assay; type: functional, cell-based; settings: MDA-MB-231, 168 h
THP-1 = test: Antiproliferative activity against human THP-1 cells expressing BRD4 assessed as inhibition of cell growth measured after 3 days by MTT assay; type: functional, cell-based; settings: THP-1, 72 h
HCT-116 = test: Antiproliferative activity against BRCA2-mutated human HCT-116 cells assessed as inhibition of cell growth measured after 7 days by MTT assay; type: functional, cell-based; settings: HCT-116, 168 h
[1] = target: Bromodomain-containing protein 4 (Homo sapiens, UniProt O60885); test: Inhibition of BRD4-BD1/2 (unknown origin)
MDA-MB-468 = test: Antiproliferative activity against BRCA-proficient human MDA-MB-468 cells assessed as inhibition of cell growth measured after 7 days by MTT assay; type: functional, cell-based; settings: MDA-MB-468, 168 h
[2] = target: Poly [ADP-ribose] polymerase 1 (Homo sapiens, UniProt P09874); test: Inhibition of PARP1 (unknown origin) using biotinylated NAD+ as substrate by microplate reader method
Chain of Poly [ADP-ribose] polymerase 1 (P09874 whole entry): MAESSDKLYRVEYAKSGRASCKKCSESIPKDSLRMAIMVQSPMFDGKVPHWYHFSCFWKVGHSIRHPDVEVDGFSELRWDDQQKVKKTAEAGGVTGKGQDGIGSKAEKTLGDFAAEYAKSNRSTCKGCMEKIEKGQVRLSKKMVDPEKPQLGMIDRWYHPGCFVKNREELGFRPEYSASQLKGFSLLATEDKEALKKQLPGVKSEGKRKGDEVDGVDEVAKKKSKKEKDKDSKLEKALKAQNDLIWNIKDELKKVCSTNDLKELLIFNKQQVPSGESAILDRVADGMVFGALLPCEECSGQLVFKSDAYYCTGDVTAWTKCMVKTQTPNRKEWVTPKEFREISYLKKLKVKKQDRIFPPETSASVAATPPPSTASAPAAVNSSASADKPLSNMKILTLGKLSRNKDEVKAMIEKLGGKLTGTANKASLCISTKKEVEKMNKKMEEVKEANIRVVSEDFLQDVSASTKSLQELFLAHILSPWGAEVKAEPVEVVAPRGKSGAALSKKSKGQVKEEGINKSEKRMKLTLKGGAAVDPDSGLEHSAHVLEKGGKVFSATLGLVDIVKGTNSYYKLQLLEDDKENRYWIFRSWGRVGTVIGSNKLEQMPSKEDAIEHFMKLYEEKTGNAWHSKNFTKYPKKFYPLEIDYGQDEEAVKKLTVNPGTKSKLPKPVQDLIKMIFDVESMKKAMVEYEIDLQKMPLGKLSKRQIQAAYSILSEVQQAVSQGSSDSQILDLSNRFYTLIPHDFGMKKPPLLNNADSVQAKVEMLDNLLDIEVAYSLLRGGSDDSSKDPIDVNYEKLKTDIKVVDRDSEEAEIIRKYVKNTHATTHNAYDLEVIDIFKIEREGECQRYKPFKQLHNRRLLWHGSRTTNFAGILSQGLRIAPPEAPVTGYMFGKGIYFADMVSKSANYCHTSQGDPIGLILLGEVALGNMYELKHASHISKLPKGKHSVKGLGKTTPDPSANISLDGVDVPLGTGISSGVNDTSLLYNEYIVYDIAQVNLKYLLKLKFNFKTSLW

CFPAC-1 = test: Antiproliferative activity against human CFPAC-1 cells assessed as inhibition of cell growth measured after 4 days by MTT assay; type: functional, cell-based; settings: CFPAC-1, 96 h
SW1990 = test: Antiproliferative activity against human SW1990 cells assessed as inhibition of cell growth measured after 4 days by MTT assay; type: functional, cell-based; settings: SW1990, 96 h
CAPAN-1 = test: Antiproliferative activity against human CAPAN-1 cells assessed as inhibition of cell growth measured after 4 days by MTT assay; type: functional, cell-based; settings: CAPAN-1, 96 h

Compound | IC50 (MDA-MB-231) [nM] | IC50 (THP-1) [nM] | IC50 (HCT-116) [nM] | IC50 [1] [nM] | IC50 (MDA-MB-468) [nM] | IC50 [2] [nM] | IC50 (CFPAC-1) [nM] | IC50 (SW1990) [nM] | IC50 (CAPAN-1) [nM]
Cc1noc(C)c1-c1ccc2c(c1)C(c1ccccc1)N(CC(=O)N[C@H](C)c1nc3c(C(N)=O)cccc3[nH]1)C(=O)N2 (stereo partly specified) | 2600 | 1530 | 16900 | 116 | 930 | 112 | – | – | –
Cc1noc(C)c1-c1ccc2c(c1)C(c1ccccc1)N(CC(=O)NC(C)(C)c1nc3c(C(N)=O)cccc3[nH]1)C(=O)N2 (stereo unspecified) | 920 | 690 | 11800 | 102 | 460 | 62 | 2560 | 3880 | 3710
Cc1noc(C)c1-c1ccc2c(c1)C(c1ccccc1)N(CC(=O)c1nc3c(C(N)=O)cccc3[nH]1)C(=O)N2 (stereo unspecified) | 8090 | 4090 | 44400 | 132 | 2590 | 116 | – | – | –
Cc1noc(C)c1-c1ccc2c(c1)C(c1ccccc1)N(CC(=O)N[C@@H](C)c1nc3c(C(N)=O)cccc3[nH]1)C(=O)N2C (stereo partly specified) | 520 | 740 | 5290 | 326 | 380 | 187 | – | – | –
Cc1noc(C)c1-c1ccc2c(c1)C(c1ccccc1)N(Cc1nc3c(C(N)=O)cccc3[nH]1)C(=O)N2 (stereo unspecified) | 1320 | 210 | 3720 | 43 | 1120 | 361 | 2030 | 2520 | 2310
Cc1noc(C)c1-c1ccc2c(c1)C(c1ccccc1)N(CC(=O)NC(c1nc3c(C(N)=O)cccc3[nH]1)C(C)C)C(=O)N2 (stereo unspecified) | – | – | – | 114 | – | 326 | – | – | –
Cc1noc(C)c1-c1ccc2c(c1)C(c1ccccc1)N(CC(=O)NCc1nc3c(C(N)=O)cccc3[nH]1)C(=O)N2C (stereo unspecified) | – | – | – | 534 | – | 73 | – | – | –
Cc1noc(C)c1-c1ccc2c(c1)C(c1ccccc1)N(CC(=O)N[C@@H](C)c1nc3c(C(N)=O)cccc3[nH]1)C(=O)N2 (stereo partly specified) | 2630 | 1660 | 16500 | 90 | 1040 | 52 | – | – | –
